Experimental data: patent US5691349A, “Quinclidine derivatives as squalene synthase inhibitors” (Zeneca Limited, priority 1992, dated 1997)
Counter-ions that a name gives are not always drawn.

Legend:
squalene synthetase = target: T1, squalene synthetase (Rattus norvegicus, UniProt Q02769); experiment: Inhibition of Squalene Synthetase (prevention of squalene formation from tritiated farnesyl pyrophosphate, rat liver microsomal protein); type: biochemical; settings: rat liver microsomes; 1-[3H]-farnesyl pyrophosphate 20 μM; 37° C.; 15 minutes; read-out: IC50 (concentration which results in a 50% inhibition of squalene production)
T1 construct: rat liver microsomal protein (20 μg); from tissue; host or cells: rat liver microsomes
T1 sequence (Q02769 1-416): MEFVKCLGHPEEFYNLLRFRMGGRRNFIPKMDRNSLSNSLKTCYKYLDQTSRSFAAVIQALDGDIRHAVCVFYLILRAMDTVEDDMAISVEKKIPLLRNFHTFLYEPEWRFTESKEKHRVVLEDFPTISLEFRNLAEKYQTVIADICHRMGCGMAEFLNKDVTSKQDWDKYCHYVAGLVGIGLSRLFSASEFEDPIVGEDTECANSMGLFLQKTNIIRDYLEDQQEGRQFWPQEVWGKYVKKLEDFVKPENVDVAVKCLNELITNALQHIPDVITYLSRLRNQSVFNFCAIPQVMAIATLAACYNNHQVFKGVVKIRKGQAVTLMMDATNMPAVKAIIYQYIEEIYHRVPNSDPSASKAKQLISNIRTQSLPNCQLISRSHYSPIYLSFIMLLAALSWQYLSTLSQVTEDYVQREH
Experimental: (a) Inhibition of Squalene Synthetase
In this test, the ability of a compound to prevent the formation of squalene from a radioactive substrate (tritiated farnesyl pyrophosphate) is assessed.
The test compound is incubated at a concentration of 25 micromolar in 200 μl of a buffered solution containing potassium phosphate (50 mM), MgCl2 (4.95 mM), KF (9.9 mM), NADPH (0.9 mM) and rat liver microsomal protein (20 μg). Rat liver microsomes are prepared by the method described in published European Patent Application No. 324,421 and stored in liquid nitrogen prior to assay. Assay vials are kept at 37° C. throughout the incubation.
The reaction is started with the addition of the substrate (1-[^3 H]-farnesyl pyrophosphate), final concentration 20 μM, and stopped after 15 minutes reaction time with the addition of 50 μl of 4% KOH. The reaction products are separated from unreacted substrate after application to a C-18 octadecyl 1 ccBond column (Analytichem Int product No. 617101). An aqueous fraction is eluted with 250 μl of 0.1M KOH. Squalene is then eluted with 1.0 ml 10% ethylacetate in hexane and radioactivity determined. The difference in radioactivity in the presence and absence of the test compound is used to determine the level of inhibition. […] The IC50 can then be determined from a plot of percentage inhibition against concentration of test compound.

[1] = tested on: de novo hepatic cholesterol synthesis; experiment: Acute rat cholesterol synthesis assay (de novo hepatic cholesterol synthesis from 14C-acetate); type: in vivo; settings: female rats, oral gavage, ip or iv dosing (route not given)
Experimental: (b) Acute rat cholesterol synthesis assay.
This is an acute in vivo test in the rat to measure de novo hepatic cholesterol synthesis from exogenously administered ^14 C-acetate.
Female rats (35-55 g) are housed in reverse lighting conditions (red light from 0200 h-1400 h) for a period of about 2 weeks prior to test. Animals are allowed free access to chow and drinking water throughout this period. At test, animals should weigh 125-150 g.
Test compounds may be administered by oral gavage, dissolved or suspended in 0.5% polysorbate, or by ip or iv dosing. Control animals receive vehicle alone. After 1 hour the rats are injected ip with 25 μCi [2-^14 C]-acetate (NEN DUPONT. specific activity, 45-60 mCi/mmol NEC-085H, or AMERSHAM specific activity, 50-60 mCi/mmol CFA 14) in a volume of 0.25 ml saline (100 μCi/ml). After a further hour, rats are terminally anaesthetised with halothane and a blood sample obtained from the abdominal vena cava.
1 ml of plasma is lyophilised and then saponified in 2 ml ethanolic KOH (1 part 33% KOH, 9 parts ethanol) at 75° C. for 2 hours. After addition of an equal quantity of water, non-saponifiable lipids are extracted with two 5 ml volumes of hexane. The hexane extracts are evaporated to dryness and the residues dissolved in ethanol to determine cholesterol specific radioactivity. EC50 values can be determined in the standard way.

Compound	IC50 (squalene synthetase) [µM]	ED50 [1] [mg/kg]
CCCCOc1ccc(CCC2CN3CCC2CC3)cc1 (centres unmarked) [Example 4, 3-[2-(4-butoxyphenyl)ethyl]-quinuclidine hydrochloride]	0.033	
CCCCCc1ccc(C#CC2(O)CN3CCC2CC3)cc1 (centres unmarked) [Example 18, 3-[2-(4-pentylphenyl)ethynyl]-3-hydroxyquinuclidine]		~21.5
